The conditions of this data set: 293.15 K; 101.33 kPa; Liquid; transient hot wire.

± gives the expanded uncertainty stated by the source.

In the case of `OCCO` [1,2-ethanediol], the thermal conductivity came to 0.25 ± 0.004 W/m/K.

For `O` [water], the thermal conductivity is recorded as 0.597 ± 0.01 W/m/K.
